Measurements published in patent US9623015B2, “Combination of an anti-cancer agent such as a tyrosinekinase inhibitor and a STAT5 antagonist, preferably a thiazolidinedione, for eliminating hematologic cancer stem cells in vivo and for preventing hematologic cancer relapse” (Commissariat à L'Energie Atomique et aux Energies …, priority 2012, dated 2017).
“Also recorded” adds a separate entry of the source.

Legend:
[1] = system: CML patients; assay: BCR-ABL/ABL RT-qPCR follow-up of three CML patients given pioglitazone on imatinib; format: in vivo, human
[2] = system: CML patients; assay: ACTIM clinical trial: molecular response and safety; format: in vivo, human
Description: BCR-ABL transcript level was monitored every 3 months during the study period. Primary objective was the proportion of patients achieving a confirmed undetectable level of BCR-ABL transcript. Secondary objectives included cumulative incidence of CMR4.5 and safety.

[3] = ACTIM companion study: imatinib trough levels; format: in vivo, human; conditions: p=ns
[4] = system: human cord blood CD34+ cells expressing BCR-ABL; assay: CFC assay after lentivector-mediated expression of BCR-ABL in cord blood CD34+ cells; format: cell-based; conditions: BCR-ABL vs eGFP lentivector; drug added for 48 h prior; p<0.002
Procedure: For CFC assays, CD34^+ cells were suspended (1×10^4) in 3 ml of alpha-MEM based methylcellulose medium (GF H4434, Stemcell Technologies). Cells were scored and collected after 14 day incubation at 37° C. and 5% CO2.
An SIV GAE-SSFV-eGFP vector was used as a control.
Cells were suspended (1×10^6/ml) in StemSpan (StemCell Technologies, France) supplemented with protamine sulfate (4 μg/ml), SCF (100 ng/ml), Flt-3-L (100 ng/ml), IL-3 (20 ng/ml), and IL-6 (20 ng/ml), in a 96-well plate coated with RetroNectin® (Takara Shuzo Co., Japan). Cell suspensions were incubated for 16 hours. Lentiviral vectors were then added and cell suspensions incubated for 12 hours. Cells were washed twice before being seeded.

[5] = system: STAT5B mRNA; assay: STAT5B RT-qPCR in CP-CML cells; format: cell-based, human; conditions: CP-CML cells after 10 days of liquid culture without cytokines; normalized to GAPDH
Description: RNA extraction and RT-qPCR analysis.

[6] = system: CD34+ CP-CML cells; assay: Liquid culture of CD34+ CP-CML cells (fold expansion, viable cells); format: cell-based, human; design: viab (%): concentration or dose not given beside the values; conditions: for Fold exp / viab (%): serum-free medium without cytokines; for Fold exp, mean: mean of 7 patients
Procedure: Cell culture and proliferation assays. K562 cells (2×10^5) were cultured in 96-well plates, in complete Dulbecco's Modified Eagle medium supplemented with 10% fetal calf serum (Gibco®, Life technologies) alone or with variable concentrations of pioglitazone or troglitazone. […] Eight replicates were used for each set of conditions and results were obtained after three independents experiments. CD34^+ cells from patients in CP-CML at diagnosis or umbilical cord blood were immunoselected (CD34 microBead Kit, Miltenyi Biotec) according to the manufacturer's instructions. […] Ph1^+-CD34^+ cells were cultured in serum free medium (SFM) StemSpan (StemCell Technologies) without growth factors.
Flow cytometry. […] For all experiment, cell viability was assessed using SYTOX® Blue dead cell stain (Invitrogen Life Technologies).

[7] = system: CP-CML LTC-ICs; assay: LTC-IC assay with limiting dilution analysis; format: cell-based, human
Procedure: Colony Forming Cell (CFC) and Long Term Culture—Initiating Cell (LTC-IC) assays. […] Cells were scored and collected after 14 day incubation at 37° C. and 5% CO2. After scoring, colonies were washed with PBS and kept frozen in RNAlater® (Invitrogen) for subsequent analysis. […] After five weeks with weekly change of one half medium volume, all cells were transferred in alpha-MEM based methylcellulose medium (GF H4434, Stemcell technologies) to determine the total clonogenic cell content of each LTC. LTC-IC frequencies were determined using the L-Calc software (Stemcell technologies).

[8] = system: STAT5; assay: STAT5 phosphorylation (flow cytometry) and STAT5 protein (Western blot) in K562 cells; format: cell-based; conditions: Imatinib 1 μM
Procedure: Intracellular STAT5 phosphorylation assays. […] Cells were fixed and permeabilized using Cytofix/Cytoperm kit (BD Pharmingen) and stained with Alexa Fluor® 488-anti-phospho-STAT5 mAb (BD Phosflow) or Alexa Fluor® 488-isotype-matched control to obtain fluorescence minus comparative in each experiment. Analysis was carried on a minimal number of 50,000 events in the viable cell gate. […] (untreated cells p-STAT5 MFI-non treated cells isotype-control MFI)-(drug treated cells p-STAT5 MR-drug treated cells isotype-control MFI). Western blot analysis. For STAT5 protein analysis, K562 cells (2.5×10^5) were lysed in RIPA lysis buffer on ice. […] Proteins were transferred to Hybond N+ filters (Amersham). Membranes were probed with the following antibodies: STAT5 (sc-1656), actin (sc-8432), and goat anti-mouse IgG-HRP (sc-2005) (Santa Cruz Biotechnology Inc.). Antibody binding was detected by the enhanced chemiluminescence ECL+ (Amersham).

[9] = Imatinib plasma levels in three CML patients; format: in vivo, human
[10] = system: CP-CML CD34+ cells
Procedure: CSFE assays. Fresh CD34^+-enriched cells were stained with 2 μM of 5-(and 6-) carboxyfluorescein diacetate succinimidyl diester (CFSE, Invitrogen). […] Cells were harvested at variable time points as indicated, collected in BD Trucount™ tubes for absolute count (BD Biosciences) and labeled with anti-CD45 and anti-CD34. Then, cells were diluted in 1 mL of phosphate-buffered saline (PBS, Invitrogen Life Technologies) containing 2% fetal calf serum (PAA) and stained for viability. All analyses were carried out on a BD FACS Canto2 Flow Cytometer.

[11] = pioglitazone added to imatinib, 24 evaluable patients

In the case of CCc1ccc(CCOc2ccc(CC3SC(=O)NC3=O)cc2)nc1 (centres unmarked) [pioglitazone], the “duration of CMR(Slog)” value ([1]; Patient 1, pioglitazone 30 mg/day added after 5 years of imatinib therapy) is reported as 56 months, the “duration of CMR(Slog)” value ([1]; Patient 2, pioglitazone 30 mg/day added after 6 year of imatinib therapy, then withdrew) is reported as 12 months and the “time without molecular relapse after stopping imatinib treatment” value ([1]; Patient 3) is reported as 6 months. The “time to CMR(Slog)” value ([1]; Patient 3, pioglitazone 45 mg/day added to imatinib) was 6 months, the “duration of CMR(Slog)” value ([1]; Patient 3, pioglitazone 45 mg/day added to imatinib 400 mg/day) was 28 months and the “patients with a confirmed undetectable level of BCR-ABL transcript” value ([2]; pioglitazone 30 mg/d 2 months then 45 mg/d added to imatinib, 24 evaluable patients) was 14%. The “discontinuation due to adverse events” value [2, 11] was “No patient discontinued due to adverse events”, the main adverse events [2, 11] was “weight gain and worsening fluid retention in 3 patients” and the “one year cumulative incidence of CMR4.5” value ([2]; pioglitazone added to imatinib, control group 27% (p=0.02)) was 57%. The “interaction between imatinib and pioglitazone in term of through level” value [3] was “No interaction; also recorded: lack of interaction”, the “degree of reduction in colony forming cells (CFC), greater when BCR-ABL was expressed” value [4] was 1.9 fold and the “decrease of STAT5B mRNA levels” value [5] was 8.5 fold. The Fold exp ([6]; Patient 1, D 3 in culture) was 0.75 fold, the “viab (%)” value ([6]; Patient 1, D 3 in culture) was 19.00% and the Fold exp ([6]; Patient 1, D 7 in culture) was 0.39 fold. For the same molecule, the “viab (%)” value ([6]; Patient 1, D 7 in culture) was 9.00%, the Fold exp ([6]; Patient 2, D 3 in culture) was 1.25 fold and the “viab (%)” value ([6]; Patient 2, D 3 in culture) was 47.00%. The Fold exp ([6]; Patient 2, D 7 in culture) was 2.96 fold, the “viab (%)” value ([6]; Patient 2, D 7 in culture) was 71.00% and the Fold exp ([6]; Patient 3, D 3 in culture) was 0.27 fold. The “viab (%)” value ([6]; Patient 3, D 3 in culture) was 9.90%, the Fold exp ([6]; Patient 3, D 7 in culture) was 1.69 fold and the “viab (%)” value ([6]; Patient 3, D 7 in culture) was 17.90%. The Fold exp ([6]; Patient 4, D 3 in culture) was 2.02 fold, the “viab (%)” value ([6]; Patient 4, D 3 in culture) was 93.00% and the Fold exp ([6]; Patient 4, D 7 in culture) was 1.67 fold. For the same molecule, the “viab (%)” value ([6]; Patient 4, D 7 in culture) was 54.00%, the Fold exp ([6]; Patient 5, D 3 in culture) was 1.32 fold and the “viab (%)” value ([6]; Patient 5, D 3 in culture) was 73.00%. The Fold exp ([6]; Patient 5, D 7 in culture) was 0.93 fold, the “viab (%)” value ([6]; Patient 5, D 7 in culture) was 86.00% and the Fold exp ([6]; Patient 6, D 3 in culture) was 1.69 fold. The “viab (%)” value ([6]; Patient 6, D 3 in culture) was 88.00%, the Fold exp ([6]; Patient 6, D 7 in culture) was 1.87 fold and the “viab (%)” value ([6]; Patient 6, D 7 in culture) was 85.00%. For the same molecule, the Fold exp ([6]; Patient 7, D 3 in culture) was 0.86 fold, the “viab (%)” value ([6]; Patient 7, D 3 in culture) was 84.00% and the Fold exp ([6]; Patient 7, D 7 in culture) was 1.48 fold. The “viab (%)” value ([6]; Patient 7, D 7 in culture) was 33.00%, the “Fold exp, mean” value ([6]; D 3 in culture) was 1.17 fold and the “Fold exp, mean” value ([6]; D 7 in culture) was 1.54 fold. For the same molecule, the “reduction of the frequency of CP-CML LTC-ICs” value ([7]; limiting dilution analysis) was 2.4 fold.

In the case of Cc1ccc(NC(=O)c2ccc(CN3CCN(C)CC3)cc2)cc1Nc1nccc(-c2cccnc2)n1 [Imatinib], the “action on STAT5 phosphorylation” value [8] is reported as “acts rapidly (minutes) by preventing STAT5 phosphorylation”, the “decrease of STAT5B mRNA levels” value [5] is reported as 1.5 fold and the “viab (%)” value ([6]; Patient 1, D 3 in culture) is reported as 0.1%. The “viab (%)” value ([6]; Patient 1, D 7 in culture) was 0.10%, the “viab (%)” value ([6]; Patient 2, D 3 in culture) was 31.00% and the “viab (%)” value ([6]; Patient 2, D 7 in culture) was 29.70%. The “viab (%)” value ([6]; Patient 3, D 3 in culture) was 4.10%, the “viab (%)” value ([6]; Patient 3, D 7 in culture) was 5.90% and the “viab (%)” value ([6]; Patient 4, D 3 in culture) was 86.00%. The “viab (%)” value ([6]; Patient 4, D 7 in culture) was 54.00%, the “viab (%)” value ([6]; Patient 5, D 3 in culture) was 54.5% and the “viab (%)” value ([6]; Patient 5, D 7 in culture) was 56.00%. The “viab (%)” value ([6]; Patient 6, D 3 in culture) was 85.00%, the “viab (%)” value ([6]; Patient 6, D 7 in culture) was 73.00% and the “viab (%)” value ([6]; Patient 7, D 3 in culture) was 84.00%. For the same molecule, the “viab (%)” value ([6]; Patient 7, D 7 in culture) was 66.00%, the plasma levels ([9]; Patient 1, imatinib 300-400 mg/day) was 924 ng/mL and the plasma levels ([9]; Patient 2, imatinib 300-400 mg/day) was 310 ng/mL. The plasma levels ([9]; Patient 3, imatinib 400 mg/day) was 790 ng/mL, the “viable CD34+ cells that never divided or had divided only once” value ([10]; Patient 4, vs. 5% for the untreated control) was 34% and the “effect on cell cycle status / quiescence” value ([10]; liquid culture without cytokines) was “induced a selection of insensitive quiescent CML cells”. The “reduction of the frequency of CP-CML LTC-ICs (in words)” value ([7]; p=0.067 and p=0.02) was “unable to reduce significantly”.
